Reference: PubChem BioAssay AID1259407 (Chemical Carcinogenesis Research Information System (CCRIS), 2018)
The source made the active and inactive calls. How the calls were made is not given here.

Test system: CCRIS mutagenicity, Ames/micronucleus/aberration tests
Test: CCRIS mutagenicity studies
[1] = Test System: AMES SALMONELLA TYPHIMURIUM, Strain/Indicator: TA98, Metabolic Activation: HAMSTER, LIVER, S-9, AROCLOR 1254, Method: STANDARD PLATE
[2] = Test System: MOUSE LYMPHOMA, Strain/Indicator: L5178Y (TK+/TK-), Metabolic Activation: RAT, LIVER, S-9, AROCLOR 1254, Method: SUSPENSION/PLATE
[3] = Test System: AMES SALMONELLA TYPHIMURIUM, Strain/Indicator: TA98, Metabolic Activation: NONE, Method: STANDARD PLATE
[4] = Test System: AMES SALMONELLA TYPHIMURIUM, Strain/Indicator: TA98, Metabolic Activation: NONE, Method: PREINCUBATION
[5] = Test System: AMES SALMONELLA TYPHIMURIUM, Strain/Indicator: TA98, Metabolic Activation: RAT, LIVER, S-9, AROCLOR 1254, Method: STANDARD PLATE
[6] = Test System: AMES SALMONELLA TYPHIMURIUM, Strain/Indicator: TA100, Metabolic Activation: NONE, Method: STANDARD PLATE
[7] = Test System: AMES SALMONELLA TYPHIMURIUM, Strain/Indicator: TA100, Metabolic Activation: RAT, LIVER, S-9, AROCLOR 1254, Method: STANDARD PLATE

Structure (SMILES): CN(C)c1ccc(N=Nc2ccc3ccccc3c2)cc1
- mutagenic call [1]: active; positive
- mutagenic call (Test System: AMES SALMONELLA TYPHIMURIUM, Strain/Indicator: TA98, Metabolic Activation: HAMSTER, LIVER, S-9, Method: PREINCUBATION (PRIVAL METHOD)): active; positive
- mutagenic call (Test System: AMES SALMONELLA TYPHIMURIUM, Strain/Indicator: TA98, Metabolic Activation: RAT, LIVER, S-9, AROCLOR 1254, HAMSTER, LIVER, S-9, AROCLOR 1254, Method: STANDARD PLATE): active; positive
- mutagenic call (Test System: AMES SALMONELLA TYPHIMURIUM, Strain/Indicator: TA100, Metabolic Activation: HAMSTER, LIVER, S-9, Method: PREINCUBATION (PRIVAL METHOD)): active; positive
- mutagenic call (Test System: AMES SALMONELLA TYPHIMURIUM, Strain/Indicator: TA1538, Metabolic Activation: RAT, LIVER, S-9, AROCLOR 1254, HAMSTER, LIVER, S-9, AROCLOR 1254, Method: STANDARD PLATE): active; positive
- mutagenic call [2]: active; positive. reevaluation of results: positive
- mutagenic call (Test System: Mouse lymphoma, Strain/Indicator: L5178Y (tk+/tk-), Metabolic Activation: None, Method: Suspension/plate): inactive; negative

Structure (SMILES): [N-]=[N+]=Nc1nc2ccccc2[nH]1
- mutagenic call [3]: active; positive

Structure (SMILES): Nc1c(Cl)cc([N+](=O)[O-])cc1[N+](=O)[O-]
- mutagenic call (End Point: IN VITRO CHROMOSOMAL ABERRATIONS, Test System: CHL CELLS, Metabolic Activation: RAT, LIVER, S-9, SODIUM PHENOBARBITAL AND 5,6-BENZOFLAVONE): active; positive (structural changes); authors report equivocal results for ploidy chang
- mutagenic call [4]: active; positive
- mutagenic call (Test System: AMES SALMONELLA TYPHIMURIUM, Strain/Indicator: TA98, Metabolic Activation: RAT, LIVER, S-9, KANECHLOR 500, Method: PREINCUBATION): active; positive
- mutagenic call (Test System: AMES SALMONELLA TYPHIMURIUM, Strain/Indicator: TA98, Metabolic Activation: RAT, LIVER, S-9, PHENOBARBITAL AND BETA-NAPHTHOFLAVONE, Method: PREINCUBATION): active; positive
- mutagenic call (Test System: AMES SALMONELLA TYPHIMURIUM, Strain/Indicator: TA100, Metabolic Activation: NONE, Method: PREINCUBATION): active; positive
- mutagenic call (Test System: AMES SALMONELLA TYPHIMURIUM, Strain/Indicator: TA100, Metabolic Activation: RAT, LIVER, S-9, KANECHLOR 500, Method: PREINCUBATION): active; positive
- mutagenic call (Test System: AMES SALMONELLA TYPHIMURIUM, Strain/Indicator: TA100, Metabolic Activation: RAT, LIVER, S-9, PHENOBARBITAL AND BETA-NAPHTHOFLAVONE, Method: PREINCUBATION): active; positive

Structure (SMILES): CCCCNC(=O)C=Cc1ccc([N+](=O)[O-])o1
- mutagenic call [4]: active; positive

Structure (SMILES): COCC(O)Cn1cc([N+](=O)[O-])nc1C (centres undefined)
- mutagenic call (Test System: E. COLI, Strain/Indicator: CM561 EXRA, Metabolic Activation: NONE, Method: SUSPENSION/PLATE): active; positive
- mutagenic call (Test System: E. COLI, Strain/Indicator: CM561 EXRA, Metabolic Activation: RAT, LIVER, S-9, AROCLOR 1254, Method: SUSPENSION/PLATE): inactive; negative
- mutagenic call (Test System: E. COLI, Strain/Indicator: CM611 UVRA EXRA, Metabolic Activation: NONE, Method: SUSPENSION/PLATE): active; positive
- mutagenic call (Test System: E. COLI, Strain/Indicator: CM611 UVRA EXRA, Metabolic Activation: RAT, LIVER, S-9, AROCLOR 1254, Method: SUSPENSION/PLATE): active; positive

Structure (SMILES): CCCCCON=O
- mutagenic call [1]: inactive; negative
- mutagenic call [3]: inactive; negative
- mutagenic call [5]: inactive; negative
- mutagenic call (Test System: AMES SALMONELLA TYPHIMURIUM, Strain/Indicator: TA100, Metabolic Activation: HAMSTER, LIVER, S-9, AROCLOR 1254, Method: STANDARD PLATE): active; positive
- mutagenic call [6]: active; positive
- mutagenic call [7]: inactive; negative
- mutagenic call (Test System: AMES SALMONELLA TYPHIMURIUM, Strain/Indicator: TA1535, Metabolic Activation: HAMSTER, LIVER, S-9, AROCLOR 1254, Method: STANDARD PLATE): active; positive
- mutagenic call (Test System: AMES SALMONELLA TYPHIMURIUM, Strain/Indicator: TA1535, Metabolic Activation: NONE, Method: STANDARD PLATE): active; positive
- mutagenic call (Test System: AMES SALMONELLA TYPHIMURIUM, Strain/Indicator: TA1535, Metabolic Activation: RAT, LIVER, S-9, AROCLOR 1254, Method: STANDARD PLATE): active; positive
- mutagenic call (Test System: AMES SALMONELLA TYPHIMURIUM, Strain/Indicator: TA1537, Metabolic Activation: HAMSTER, LIVER, S-9, AROCLOR 1254, Method: STANDARD PLATE): inactive; negative
- mutagenic call (Test System: AMES SALMONELLA TYPHIMURIUM, Strain/Indicator: TA1537, Metabolic Activation: NONE, Method: STANDARD PLATE): inactive; negative
- mutagenic call (Test System: AMES SALMONELLA TYPHIMURIUM, Strain/Indicator: TA1537, Metabolic Activation: RAT, LIVER, S-9, AROCLOR 1254, Method: STANDARD PLATE): inactive; negative
- mutagenic call (Test System: MOUSE LYMPHOMA, Strain/Indicator: L5178Y (TK+/TK-), Metabolic Activation: NONE, Method: SUSPENSION/PLATE): inactive; negative. reevaluation of results: inconclusive/negative
- mutagenic call [2]: inactive; negative. reevaluation of results: negative

Structure (SMILES): CCCOc1cc(N=Nc2ccc(N(CCO)CCO)cc2)ccc1N=Nc1c(S(=O)(=O)O)cc2ccc(N)cc2c1O
- mutagenic call [3]: inactive; negative
- mutagenic call [5]: active; positive
- mutagenic call [6]: inactive; negative
- mutagenic call [7]: inactive; negative
- mutagenic call (Test System: AMES SALMONELLA TYPHIMURIUM, Strain/Indicator: TA1538, Metabolic Activation: NONE, Method: STANDARD PLATE): inactive; negative
- mutagenic call (Test System: AMES SALMONELLA TYPHIMURIUM, Strain/Indicator: TA1538, Metabolic Activation: RAT, LIVER, S-9, AROCLOR 1254, Method: STANDARD PLATE): active; positive

Structure (SMILES): O=C(O)c1ccc(ON2P(Oc3ccc(C(=O)O)cc3)N=P(Oc3ccc(C(=O)O)cc3)(Oc3ccc(C(=O)O)cc3)N(Oc3ccc(C(=O)O)cc3)P2Oc2ccc(C(=O)O)cc2)cc1 (centres undefined)
- mutagenic call [3]: inactive; negative
- mutagenic call [5]: inactive; negative
- mutagenic call [6]: inactive; negative
- mutagenic call [7]: inactive; negative
